Experimental data reported in the kinase profiling compilation of Christmann-Franck et al. (2016).

What was measured:
Test in all cases: radiometric filter-binding kinase assay, Kinase HotSpot
Details in all cases: compound 0.5 µM; ATP 10 µM
PTK6 (human) = PTK6 (human) (UniProt Q13882)
CAMK2B (human) = CAMK2B (human) (UniProt Q13554)
NEK7 (human) = NEK7 (human) (UniProt Q8TDX7)
AKT2 (human) = AKT2 (human) (UniProt P31751)
STK25 (human) = STK25 (human) (UniProt O00506)
CHUK (human) = CHUK (human) (UniProt O15111)
MYLK (human) = MYLK (human) (UniProt Q15746)
PRKCB1 (human) = PRKCB1 (human) (UniProt P05771)
MAPK9 (human) = MAPK9 (human) (UniProt P45984)
IRAK1 (human) = IRAK1 (human) (UniProt P51617)
FLT3 (human) = FLT3 (human) (UniProt P36888)
MARK1 (human) = MARK1 (human) (UniProt Q9P0L2)
CSF1R (human) = CSF1R (human) (UniProt P07333)
CDK6 CCND1 (human) = CDK6 CCND1 (human) (UniProt Q00534+P24385)
PRKACA (human) = PRKACA (human) (UniProt P17612)
FGR (human) = FGR (human) (UniProt P09769)
ACVR1B (human) = ACVR1B (human) (UniProt P36896)
FES (human) = FES (human) (UniProt P07332)
WNK3 (human) = WNK3 (human) (UniProt Q9BYP7)
ABL1 (human) = ABL1 (human) (UniProt P00519)
INSRR (human) = INSRR (human) (UniProt P14616)
GSG2 (human) = GSG2 (human) (UniProt Q8TF76)
TEK (human) = TEK (human) (UniProt Q02763)
AXL (human) = AXL (human) (UniProt P30530)
NEK9 (human) = NEK9 (human) (UniProt Q8TD19)
SRPK3 (human) = SRPK3 (human) (UniProt Q9UPE1)
CDC42BPA (human) = CDC42BPA (human) (UniProt Q5VT25)
FGFR1 (human) = FGFR1 (human) (UniProt P11362)
CSNK1D (human) = CSNK1D (human) (UniProt P48730)
SLK (human) = SLK (human) (UniProt Q9H2G2)
CAMK4 (human) = CAMK4 (human) (UniProt Q16566)
PLK1 (human) = PLK1 (human) (UniProt P53350)
NEK3 (human) = NEK3 (human) (UniProt P51956)
PDGFRA (human) = PDGFRA (human) (UniProt P16234)
[1] = system: MKNK1 (human), Q9BUB5 [T385D; 165-205 del]
MAPK3 (human) = MAPK3 (human) (UniProt P27361)
GRK7 (human) = GRK7 (human) (UniProt Q8WTQ7)
MLTK (human) = MLTK (human) (UniProt Q9NYL2)
PHKG1 (human) = PHKG1 (human) (UniProt Q16816)
MARK2 (human) = MARK2 (human) (UniProt Q7KZI7)
DYRK1B (human) = DYRK1B (human) (UniProt Q9Y463)
CLK3 (human) = CLK3 (human) (UniProt P49761)

INSRR (human), sequence (P14616 whole entry, looked up): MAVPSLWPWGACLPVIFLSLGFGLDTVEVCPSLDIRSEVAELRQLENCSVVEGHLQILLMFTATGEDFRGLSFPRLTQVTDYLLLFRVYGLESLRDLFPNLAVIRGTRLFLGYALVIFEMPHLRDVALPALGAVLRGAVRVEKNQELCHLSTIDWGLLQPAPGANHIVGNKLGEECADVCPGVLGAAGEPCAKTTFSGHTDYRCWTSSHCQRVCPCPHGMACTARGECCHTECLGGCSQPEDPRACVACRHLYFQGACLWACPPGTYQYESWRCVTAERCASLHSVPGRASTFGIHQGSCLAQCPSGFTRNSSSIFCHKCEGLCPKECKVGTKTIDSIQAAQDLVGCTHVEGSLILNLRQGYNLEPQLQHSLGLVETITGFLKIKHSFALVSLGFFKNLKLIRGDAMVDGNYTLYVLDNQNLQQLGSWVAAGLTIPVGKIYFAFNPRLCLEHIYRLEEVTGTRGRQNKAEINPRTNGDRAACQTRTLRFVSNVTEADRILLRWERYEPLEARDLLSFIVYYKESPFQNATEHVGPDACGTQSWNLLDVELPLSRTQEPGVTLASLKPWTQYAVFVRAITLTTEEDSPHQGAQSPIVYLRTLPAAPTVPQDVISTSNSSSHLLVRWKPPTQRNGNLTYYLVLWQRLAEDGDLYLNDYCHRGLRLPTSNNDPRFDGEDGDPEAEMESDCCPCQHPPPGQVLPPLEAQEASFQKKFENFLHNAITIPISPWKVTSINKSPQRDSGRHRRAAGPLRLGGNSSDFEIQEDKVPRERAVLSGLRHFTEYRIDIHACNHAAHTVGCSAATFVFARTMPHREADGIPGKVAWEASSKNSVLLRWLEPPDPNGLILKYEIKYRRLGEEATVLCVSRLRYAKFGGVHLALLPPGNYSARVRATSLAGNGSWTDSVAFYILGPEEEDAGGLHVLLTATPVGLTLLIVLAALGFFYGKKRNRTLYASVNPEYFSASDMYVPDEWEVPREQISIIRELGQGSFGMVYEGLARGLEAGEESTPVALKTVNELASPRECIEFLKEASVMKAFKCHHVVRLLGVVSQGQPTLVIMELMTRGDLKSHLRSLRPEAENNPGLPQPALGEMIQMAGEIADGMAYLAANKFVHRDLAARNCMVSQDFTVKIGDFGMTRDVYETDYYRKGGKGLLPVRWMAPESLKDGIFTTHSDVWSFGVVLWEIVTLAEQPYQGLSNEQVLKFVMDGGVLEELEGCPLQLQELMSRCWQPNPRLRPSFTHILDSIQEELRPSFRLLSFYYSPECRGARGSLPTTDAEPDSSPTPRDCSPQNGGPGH
CAMK2B (human), sequence (Q13554 whole entry, looked up): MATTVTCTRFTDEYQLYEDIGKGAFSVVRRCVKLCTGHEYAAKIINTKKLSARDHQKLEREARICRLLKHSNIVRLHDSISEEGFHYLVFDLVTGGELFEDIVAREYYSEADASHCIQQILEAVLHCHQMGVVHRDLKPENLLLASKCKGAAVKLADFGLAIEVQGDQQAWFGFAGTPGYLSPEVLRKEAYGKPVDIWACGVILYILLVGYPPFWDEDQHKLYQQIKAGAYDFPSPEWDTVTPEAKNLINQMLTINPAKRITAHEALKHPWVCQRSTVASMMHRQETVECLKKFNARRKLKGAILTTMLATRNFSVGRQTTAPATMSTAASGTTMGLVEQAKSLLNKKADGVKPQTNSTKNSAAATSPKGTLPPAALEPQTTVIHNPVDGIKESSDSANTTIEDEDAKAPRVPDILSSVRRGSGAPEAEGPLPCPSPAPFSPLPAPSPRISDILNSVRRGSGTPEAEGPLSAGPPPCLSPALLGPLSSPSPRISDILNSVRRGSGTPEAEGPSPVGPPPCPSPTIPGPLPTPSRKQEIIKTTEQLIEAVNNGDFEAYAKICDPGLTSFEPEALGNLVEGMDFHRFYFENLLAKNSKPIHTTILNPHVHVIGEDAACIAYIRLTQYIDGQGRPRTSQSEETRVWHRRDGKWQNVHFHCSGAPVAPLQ
PHKG1 (human), sequence (Q16816 whole entry, looked up): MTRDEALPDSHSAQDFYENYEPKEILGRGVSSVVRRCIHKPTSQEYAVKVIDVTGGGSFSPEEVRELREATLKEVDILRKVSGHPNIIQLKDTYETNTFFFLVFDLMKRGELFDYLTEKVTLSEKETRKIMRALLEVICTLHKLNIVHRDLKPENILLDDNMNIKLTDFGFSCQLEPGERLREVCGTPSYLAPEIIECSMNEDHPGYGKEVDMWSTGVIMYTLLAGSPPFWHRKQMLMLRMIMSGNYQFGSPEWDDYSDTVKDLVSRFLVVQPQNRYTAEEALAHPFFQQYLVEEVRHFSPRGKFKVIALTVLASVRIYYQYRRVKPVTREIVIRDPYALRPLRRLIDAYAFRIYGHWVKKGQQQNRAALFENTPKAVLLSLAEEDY
TEK (human), sequence (Q02763 whole entry, looked up): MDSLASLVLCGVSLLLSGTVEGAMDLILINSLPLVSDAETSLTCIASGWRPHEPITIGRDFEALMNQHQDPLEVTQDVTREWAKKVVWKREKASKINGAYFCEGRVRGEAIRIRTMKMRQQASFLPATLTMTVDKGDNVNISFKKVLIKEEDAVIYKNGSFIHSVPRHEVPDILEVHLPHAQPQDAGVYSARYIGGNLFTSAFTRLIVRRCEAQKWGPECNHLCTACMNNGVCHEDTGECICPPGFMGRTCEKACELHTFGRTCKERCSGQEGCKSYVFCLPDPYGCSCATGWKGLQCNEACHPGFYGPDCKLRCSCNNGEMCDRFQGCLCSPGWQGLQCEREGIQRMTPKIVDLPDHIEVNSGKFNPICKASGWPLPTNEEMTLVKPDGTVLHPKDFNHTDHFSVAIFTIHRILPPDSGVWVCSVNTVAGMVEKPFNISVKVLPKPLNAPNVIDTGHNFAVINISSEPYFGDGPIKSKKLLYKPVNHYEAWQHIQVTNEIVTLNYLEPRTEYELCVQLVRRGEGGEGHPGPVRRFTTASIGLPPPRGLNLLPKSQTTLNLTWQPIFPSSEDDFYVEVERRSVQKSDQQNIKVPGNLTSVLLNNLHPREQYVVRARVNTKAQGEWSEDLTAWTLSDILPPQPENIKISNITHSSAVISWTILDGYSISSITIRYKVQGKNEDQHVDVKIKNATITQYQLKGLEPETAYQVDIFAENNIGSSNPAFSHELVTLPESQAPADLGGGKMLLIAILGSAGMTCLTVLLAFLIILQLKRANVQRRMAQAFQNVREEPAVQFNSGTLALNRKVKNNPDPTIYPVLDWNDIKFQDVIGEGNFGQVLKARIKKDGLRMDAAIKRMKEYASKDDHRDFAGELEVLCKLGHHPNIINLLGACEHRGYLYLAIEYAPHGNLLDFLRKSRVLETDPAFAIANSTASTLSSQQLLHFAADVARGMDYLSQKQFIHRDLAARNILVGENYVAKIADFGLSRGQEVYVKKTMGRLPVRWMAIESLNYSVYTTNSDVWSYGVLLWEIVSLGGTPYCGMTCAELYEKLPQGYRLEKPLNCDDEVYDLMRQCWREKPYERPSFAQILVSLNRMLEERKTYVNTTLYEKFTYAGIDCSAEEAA
CSF1R (human), sequence (P07333 whole entry, looked up): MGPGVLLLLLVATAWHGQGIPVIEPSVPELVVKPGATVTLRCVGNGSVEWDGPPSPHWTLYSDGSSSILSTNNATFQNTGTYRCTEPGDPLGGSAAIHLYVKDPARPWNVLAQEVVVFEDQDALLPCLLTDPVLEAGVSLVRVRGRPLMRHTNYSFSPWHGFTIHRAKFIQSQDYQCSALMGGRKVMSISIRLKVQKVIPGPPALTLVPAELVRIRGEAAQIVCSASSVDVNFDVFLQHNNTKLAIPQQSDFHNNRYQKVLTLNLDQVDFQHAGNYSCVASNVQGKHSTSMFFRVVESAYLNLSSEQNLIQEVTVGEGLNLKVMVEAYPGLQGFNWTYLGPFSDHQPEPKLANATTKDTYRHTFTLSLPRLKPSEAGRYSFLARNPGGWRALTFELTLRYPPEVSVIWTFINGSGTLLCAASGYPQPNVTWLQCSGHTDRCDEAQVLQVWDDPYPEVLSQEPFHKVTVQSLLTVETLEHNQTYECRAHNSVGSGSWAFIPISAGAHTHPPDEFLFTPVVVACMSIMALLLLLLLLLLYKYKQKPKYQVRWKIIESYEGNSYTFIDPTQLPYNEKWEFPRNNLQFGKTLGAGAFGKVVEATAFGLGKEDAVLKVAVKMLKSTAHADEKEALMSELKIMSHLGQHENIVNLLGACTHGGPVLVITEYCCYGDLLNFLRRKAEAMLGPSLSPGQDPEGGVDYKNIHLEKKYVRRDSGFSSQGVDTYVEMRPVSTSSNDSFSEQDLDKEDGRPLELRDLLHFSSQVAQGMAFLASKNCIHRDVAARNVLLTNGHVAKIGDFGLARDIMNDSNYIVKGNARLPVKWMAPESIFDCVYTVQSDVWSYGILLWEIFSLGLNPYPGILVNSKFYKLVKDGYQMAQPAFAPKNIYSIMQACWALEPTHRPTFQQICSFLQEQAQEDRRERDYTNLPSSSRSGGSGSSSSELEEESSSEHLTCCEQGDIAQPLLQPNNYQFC
PLK1 (human), sequence (P53350 whole entry, looked up): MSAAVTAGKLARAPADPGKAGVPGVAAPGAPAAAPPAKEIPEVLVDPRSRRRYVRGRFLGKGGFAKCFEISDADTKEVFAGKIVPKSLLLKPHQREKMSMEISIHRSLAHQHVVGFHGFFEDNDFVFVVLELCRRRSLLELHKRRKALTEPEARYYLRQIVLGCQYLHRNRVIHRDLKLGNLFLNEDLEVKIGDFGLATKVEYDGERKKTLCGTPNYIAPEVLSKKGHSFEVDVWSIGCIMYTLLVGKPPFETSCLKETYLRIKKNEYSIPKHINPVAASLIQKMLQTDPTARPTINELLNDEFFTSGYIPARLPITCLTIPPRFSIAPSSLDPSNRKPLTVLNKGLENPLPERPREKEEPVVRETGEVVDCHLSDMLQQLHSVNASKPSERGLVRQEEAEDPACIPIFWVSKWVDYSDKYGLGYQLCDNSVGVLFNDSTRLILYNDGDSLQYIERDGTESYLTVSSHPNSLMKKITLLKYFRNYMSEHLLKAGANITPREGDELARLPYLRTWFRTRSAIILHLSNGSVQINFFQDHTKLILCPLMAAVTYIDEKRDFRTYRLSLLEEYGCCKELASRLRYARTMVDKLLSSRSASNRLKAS

## c1ccc2c(-c3ccncc3)c[nH]c2c1
PTK6 (human)
  residual activity: 85.5%
CAMK2B (human)
  residual activity: 90.5%
NEK7 (human)
  residual activity: 104%
AKT2 (human)
  residual activity: 96.4%
STK25 (human)
  residual activity: 117%
CHUK (human)
  residual activity: 107%
MYLK (human)
  residual activity: 96.8%
PRKCB1 (human)
  residual activity: 95.1%
MAPK9 (human)
  residual activity: 103%
IRAK1 (human)
  residual activity: 127%
FLT3 (human)
  residual activity: 91.5%
MARK1 (human)
  residual activity: 94.5%
CSF1R (human)
  residual activity: 101%
CDK6 CCND1 (human)
  residual activity: 97.6%
PRKACA (human)
  residual activity: 91.6%
FGR (human)
  residual activity: 94.5%
ACVR1B (human)
  residual activity: 98.8%
FES (human)
  residual activity: 105%
WNK3 (human)
  residual activity: 100%
ABL1 (human)
  residual activity: 98.8%
INSRR (human)
  residual activity: 101%
GSG2 (human)
  residual activity: 62.3%
TEK (human)
  residual activity: 101%
AXL (human)
  residual activity: 99.8%
NEK9 (human)
  residual activity: 101%
SRPK3 (human)
  residual activity: 96%
CDC42BPA (human)
  residual activity: 99.9%
FGFR1 (human)
  residual activity: 92.7%
CSNK1D (human)
  residual activity: 105%
SLK (human)
  residual activity: 103%
CAMK4 (human)
  residual activity: 101%
PLK1 (human)
  residual activity: 102%
NEK3 (human)
  residual activity: 91.6%
PDGFRA (human)
  residual activity: 95%
[1]
  residual activity: 75.5%
MAPK3 (human)
  residual activity: 98.9%
GRK7 (human)
  residual activity: 98.4%
MLTK (human)
  residual activity: 102%
PHKG1 (human)
  residual activity: 90.3%
MARK2 (human)
  residual activity: 102%
DYRK1B (human)
  residual activity: 90.5%
CLK3 (human)
  residual activity: 92.6%
